Data as given in ChEMBL document CHEMBL1201862, “PubChem BioAssay data set” (2004).
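Values below derive from 48-hour exposures of cells grown in 96-well plates, with endpoints linearly interpolated between the two concentrations bracketing the appropriate inhibition level. GI50 is the concentration that inhibits growth by half.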 Activity calls are given as the source filed them. No stated cut-off is given here; in the data, active = GI50 up to about 1.1 µM and inactive = higher.

Columns and labels:
Experiment in all cases: growth of human tumour cells (NCI), 48 h
[1] = test system: SW-620
[2] = test system: IGROV-1
[3] = test system: KM-20L2
[4] = test system: K562
[5] = test system: HOP-92
[6] = test system: SF-539
[7] = test system: HCT-15
[8] = test system: HCC 2998
[9] = test system: OVCAR-4
[10] = test system: SN12C
[11] = test system: DMS-114
[12] = test system: LOX IMVI
[13] = test system: HOP-18
[14] = test system: MCF7
[15] = test system: HOP-62
[16] = test system: UACC-62
[17] = test system: M14
[18] = test system: TK-10
[19] = test system: 786-0

COc1ccc(C2CC(c3sc(Nc4ccc(C)cc4)nc3C)=NN2)cc1 (stereo not given)
GI50 [1]: 18.8 µM (inactive) | GI50 [2]: > 40.8 µM (inactive) | GI50 [3]: 16.1 µM (inactive) | GI50 [4]: 12.8 µM (inactive) | GI50 [5]: 14.2 µM (inactive) | GI50 [6]: 15.4 µM (inactive) | GI50 [7]: 15.1 µM | GI50 [8]: 15.8 µM (inactive) | GI50 [9]: 13.3 µM (inactive) | GI50 [10]: 14.1 µM (inactive) | GI50 [11]: 14.1 µM (inactive) | GI50 [12]: 18.2 µM (inactive) | GI50 [13]: 15.3 µM (inactive) | GI50 [14]: 14 µM (inactive) | GI50 [15]: 20.7 µM (inactive) | GI50 [16]: 40 µM (inactive)

COc1ccc(C2=NN(c3nsc4ccccc34)C(=O)CC2)cc1
GI50 [1]: > 100 µM (inactive) | GI50 [2]: 70.1 µM (inactive) | GI50 [3]: > 100 µM (inactive) | GI50 [4]: 36 µM (inactive) | GI50 [5]: 92 µM (inactive) | GI50 [6]: > 100 µM (inactive) | GI50 [7]: 57.9 µM | GI50 [8]: > 100 µM (inactive) | GI50 [9]: > 100 µM (inactive) | GI50 [10]: > 100 µM (inactive) | GI50 [11]: 58.5 µM (inactive) | GI50 [12]: 89.1 µM (inactive) | GI50 [17]: > 100 µM (inactive) | GI50 [13]: 12.6 µM (inactive) | GI50 [18]: > 100 µM (inactive) | GI50 [15]: > 100 µM (inactive) | GI50 [16]: > 100 µM (inactive)

O=NN(CCCl)C(=O)N[C@H]1CC[C@H](C(=O)O)CC1
GI50 [1]: > 61.1 µM (inactive) | GI50 [2]: > 100 µM (inactive) | GI50 [3]: > 100 µM (inactive) | GI50 [4]: > 100 µM (inactive) | GI50 [5]: > 100 µM (inactive) | GI50 [6]: 36.1 µM (inactive) | GI50 [7]: > 100 µM | GI50 [8]: > 100 µM (inactive) | GI50 [9]: > 100 µM (inactive) | GI50 [10]: > 100 µM (inactive) | GI50 [11]: 22.8 µM (inactive) | GI50 [12]: > 72.6 µM (inactive) | GI50 [13]: > 100 µM (inactive) | GI50 [14]: > 100 µM (inactive) | GI50 [15]: 95.5 µM (inactive) | GI50 [16]: 20.2 µM (inactive)

COc1cccc(CC(C)N)c1 (stereo not given)
GI50 [1]: > 100 µM (inactive) | GI50 [2]: > 100 µM (inactive) | GI50 [3]: > 100 µM (inactive) | GI50 [4]: > 100 µM (inactive) | GI50 [5]: > 100 µM (inactive) | GI50 [6]: > 100 µM (inactive) | GI50 [7]: > 100 µM | GI50 [8]: > 100 µM (inactive) | GI50 [9]: > 100 µM (inactive) | GI50 [10]: > 100 µM (inactive) | GI50 [11]: > 100 µM (inactive) | GI50 [12]: > 100 µM (inactive) | GI50 [17]: > 100 µM (inactive) | GI50 [19]: > 100 µM (inactive) | GI50 [13]: > 100 µM (inactive) | GI50 [18]: > 100 µM (inactive) | GI50 [15]: > 100 µM (inactive) | GI50 [16]: > 100 µM (inactive)

CC[C@@H]1C[C@@H]2CN3CCc4c([nH]c5ccc(OC)cc45)C(COC(=O)c4ccc(OC)c(OC)c4)(C2)C13
GI50 [1]: 14.6 µM (inactive) | GI50 [2]: 20.2 µM (inactive) | GI50 [3]: 15.6 µM (inactive) | GI50 [4]: 7.91 µM (inactive) | GI50 [5]: 10 µM (inactive) | GI50 [6]: 18.8 µM (inactive) | GI50 [7]: 18.4 µM | GI50 [8]: 20.3 µM (inactive) | GI50 [9]: 26.4 µM (inactive) | GI50 [10]: 17.4 µM (inactive) | GI50 [11]: 11.6 µM (inactive) | GI50 [12]: 12.7 µM (inactive) | GI50 [17]: 14.9 µM (inactive) | GI50 [19]: 25.2 µM (inactive) | GI50 [13]: 58.2 µM (inactive) | GI50 [18]: 32.2 µM (inactive) | GI50 [15]: 22.9 µM (inactive) | GI50 [16]: 13.7 µM (inactive)

C=C1CC(OC)(C(O)C(=O)N[C@H]2OCO[C@H]3C2O[C@H](C[C@@H](COC)OC)C(C)(C)C3OC)O[C@H](C)[C@@H]1C (stereo not given in full)
GI50 [1]: < 0.00482 µM (active) | GI50 [2]: < 0.00482 µM (active) | GI50 [3]: < 0.00482 µM (active) | GI50 [4]: < 0.00482 µM (active) | GI50 [6]: < 0.00482 µM (active) | GI50 [7]: < 0.00482 µM | GI50 [8]: < 0.00482 µM (active) | GI50 [9]: < 0.00482 µM (active) | GI50 [10]: < 0.00482 µM (active) | GI50 [11]: < 0.00482 µM (active) | GI50 [12]: < 0.00482 µM (active) | GI50 [13]: < 0.00482 µM (active) | GI50 [14]: < 0.00482 µM (active) | GI50 [15]: < 0.00482 µM (active) | GI50 [16]: < 0.00482 µM (active)

C=C1C(=O)C[C@@]23CCC[C@@]12CC(OCOC)C3 (stereo not given in full)
GI50 [1]: 2.07 µM (inactive) | GI50 [2]: 1.85 µM (inactive) | GI50 [3]: 2.83 µM (inactive) | GI50 [4]: 3.12 µM (inactive) | GI50 [5]: 2.32 µM (inactive) | GI50 [6]: 3.24 µM (inactive) | GI50 [7]: 1.36 µM | GI50 [8]: 6.35 µM (inactive) | GI50 [9]: 2.19 µM (inactive) | GI50 [10]: 1.93 µM (inactive) | GI50 [11]: 1.91 µM (inactive) | GI50 [12]: 1.61 µM (inactive) | GI50 [13]: 3.6 µM (inactive) | GI50 [14]: 1.83 µM (inactive) | GI50 [15]: 12 µM (inactive) | GI50 [16]: 2.61 µM (inactive)

NC(=O)c1ncn2c1NC(=O)CC2
GI50 [1]: > 100 µM (inactive) | GI50 [2]: > 100 µM (inactive) | GI50 [3]: > 100 µM (inactive) | GI50 [4]: > 100 µM (inactive) | GI50 [5]: > 100 µM (inactive) | GI50 [6]: > 100 µM (inactive) | GI50 [7]: > 100 µM | GI50 [8]: > 100 µM (inactive) | GI50 [9]: > 100 µM (inactive) | GI50 [10]: > 100 µM (inactive) | GI50 [11]: > 100 µM (inactive) | GI50 [12]: > 100 µM (inactive) | GI50 [13]: > 100 µM (inactive) | GI50 [14]: > 100 µM (inactive) | GI50 [15]: > 100 µM (inactive) | GI50 [16]: > 67.8 µM (inactive)

NC(=O)c1csc(C2O[C@@H](COP(=O)(O)OP(=O)(O)OC[C@H]3OC(n4cnc5c(N)ncnc54)[C@H](O)[C@@H]3O)[C@H](O)[C@@H]2O)n1 (stereo not given in full)
GI50 [1]: > 100 µM (inactive) | GI50 [2]: > 100 µM (inactive) | GI50 [3]: > 100 µM (inactive) | GI50 [4]: 23.6 µM (inactive) | GI50 [5]: > 100 µM (inactive) | GI50 [6]: 52 µM (inactive) | GI50 [7]: > 100 µM | GI50 [8]: > 100 µM (inactive) | GI50 [9]: 73.3 µM (inactive) | GI50 [10]: > 100 µM (inactive) | GI50 [11]: > 100 µM (inactive) | GI50 [12]: 54.5 µM (inactive) | GI50 [17]: 37.8 µM (inactive) | GI50 [19]: 57.1 µM (inactive) | GI50 [13]: > 100 µM (inactive) | GI50 [18]: > 100 µM (inactive) | GI50 [15]: > 100 µM (inactive) | GI50 [16]: 72.1 µM (inactive)
